The text below walks through data of ChEMBL document CHEMBL4359833, “Philanthotoxin Analogues That Selectively Inhibit Ganglionic Nicotinic Acetylcholine Receptors with Exceptional Potency” (J Med Chem, 2019).

Common to all, as to type: cell-based
One experiment is filed under the species Homo sapiens. Description: Selectivity ratio of IC50 for alpha4beta2 nAChR (unknown origin) expressed in Xenopus laevis oocytes to IC50 for alpha3beta4 nAChR (unknown origin) expressed in Xenopus laevis oocytes.
Experiment [1] addresses T1, Neuronal acetylcholine receptor; alpha3/beta4 (Homo sapiens, UniProt P30926+P32297). The experiment can be described thus: Antagonist activity at alpha3beta4 nAChR (unknown origin) expressed in Xenopus laevis oocytes assessed as inhibition of Ach-induced channel activation at -100 mV holding potential treated for 1 min by two electrode voltage-clamp assay relative to PhTX-343 IC50.

The target of experiment [2] is T2, Neuronal acetylcholine receptor; alpha4/beta2 (Homo sapiens, UniProt P17787+P43681). The experiment can be described thus: Antagonist activity at alpha4beta2 nAChR (unknown origin) expressed in Xenopus laevis oocytes assessed as inhibition of Ach-induced channel activation at -100 mV holding potential treated for 1 min by two electrode voltage-clamp assay relative to PhTX-343 IC50. (In general: Two-electrode voltage clamp holds a large cell at a set potential and records current.)
T2 sequence (P17787 whole entry): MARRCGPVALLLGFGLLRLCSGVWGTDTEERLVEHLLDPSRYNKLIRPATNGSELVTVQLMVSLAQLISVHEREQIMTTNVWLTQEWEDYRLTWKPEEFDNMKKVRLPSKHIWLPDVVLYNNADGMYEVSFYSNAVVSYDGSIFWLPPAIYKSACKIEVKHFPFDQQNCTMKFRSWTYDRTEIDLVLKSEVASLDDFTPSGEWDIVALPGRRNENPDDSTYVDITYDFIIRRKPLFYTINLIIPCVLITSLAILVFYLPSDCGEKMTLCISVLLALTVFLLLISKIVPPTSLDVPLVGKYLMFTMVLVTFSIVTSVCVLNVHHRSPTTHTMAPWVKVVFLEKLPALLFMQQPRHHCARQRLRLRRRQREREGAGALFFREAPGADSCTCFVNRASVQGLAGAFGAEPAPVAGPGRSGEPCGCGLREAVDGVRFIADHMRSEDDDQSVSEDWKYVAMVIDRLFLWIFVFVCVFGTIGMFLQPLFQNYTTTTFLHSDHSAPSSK
T2 sequence (P43681 whole entry): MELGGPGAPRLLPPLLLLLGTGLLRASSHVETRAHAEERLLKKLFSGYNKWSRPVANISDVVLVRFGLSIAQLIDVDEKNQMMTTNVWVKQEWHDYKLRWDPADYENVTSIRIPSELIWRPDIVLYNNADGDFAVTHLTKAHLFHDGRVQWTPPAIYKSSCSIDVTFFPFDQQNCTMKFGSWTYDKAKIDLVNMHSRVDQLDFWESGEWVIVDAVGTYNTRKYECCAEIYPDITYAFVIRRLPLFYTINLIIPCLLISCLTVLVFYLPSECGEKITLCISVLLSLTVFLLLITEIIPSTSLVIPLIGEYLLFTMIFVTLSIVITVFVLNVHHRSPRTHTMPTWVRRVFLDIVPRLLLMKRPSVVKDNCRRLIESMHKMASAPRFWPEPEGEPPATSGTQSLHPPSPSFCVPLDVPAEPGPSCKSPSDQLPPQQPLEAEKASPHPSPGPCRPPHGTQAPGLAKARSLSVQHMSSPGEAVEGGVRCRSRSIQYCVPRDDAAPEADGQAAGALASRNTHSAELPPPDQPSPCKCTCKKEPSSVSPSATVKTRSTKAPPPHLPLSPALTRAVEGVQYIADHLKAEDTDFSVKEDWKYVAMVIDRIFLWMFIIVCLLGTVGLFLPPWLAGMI

Experiment [3] addresses T1, Neuronal acetylcholine receptor; alpha3/beta4. Description: Antagonist activity at alpha3beta4 nAChR (unknown origin) expressed in Xenopus laevis oocytes assessed as inhibition of Ach-induced channel activation at -100 mV holding potential treated for 1 min by two electrode voltage-clamp assay.
Experiment [4] deals with T2, Neuronal acetylcholine receptor; alpha4/beta2. Description: Antagonist activity at alpha4beta2 nAChR (unknown origin) expressed in Xenopus laevis oocytes assessed as inhibition of Ach-induced channel activation at -100 mV holding potential treated for 1 min by two electrode voltage-clamp assay.

T1 sequence (P30926 whole entry): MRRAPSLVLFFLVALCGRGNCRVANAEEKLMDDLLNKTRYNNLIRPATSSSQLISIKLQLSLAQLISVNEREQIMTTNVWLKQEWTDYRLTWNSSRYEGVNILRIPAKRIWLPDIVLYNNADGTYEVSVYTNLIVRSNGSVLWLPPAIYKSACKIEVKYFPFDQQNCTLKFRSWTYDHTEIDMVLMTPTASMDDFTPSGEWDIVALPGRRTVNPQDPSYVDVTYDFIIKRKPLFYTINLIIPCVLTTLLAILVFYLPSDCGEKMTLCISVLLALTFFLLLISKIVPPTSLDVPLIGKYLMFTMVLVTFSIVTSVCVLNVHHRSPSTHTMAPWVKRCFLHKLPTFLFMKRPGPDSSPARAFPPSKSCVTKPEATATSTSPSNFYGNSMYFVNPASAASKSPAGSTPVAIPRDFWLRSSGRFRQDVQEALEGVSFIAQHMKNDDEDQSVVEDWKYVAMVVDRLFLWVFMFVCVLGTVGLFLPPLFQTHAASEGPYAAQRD
T1 sequence (P32297 whole entry): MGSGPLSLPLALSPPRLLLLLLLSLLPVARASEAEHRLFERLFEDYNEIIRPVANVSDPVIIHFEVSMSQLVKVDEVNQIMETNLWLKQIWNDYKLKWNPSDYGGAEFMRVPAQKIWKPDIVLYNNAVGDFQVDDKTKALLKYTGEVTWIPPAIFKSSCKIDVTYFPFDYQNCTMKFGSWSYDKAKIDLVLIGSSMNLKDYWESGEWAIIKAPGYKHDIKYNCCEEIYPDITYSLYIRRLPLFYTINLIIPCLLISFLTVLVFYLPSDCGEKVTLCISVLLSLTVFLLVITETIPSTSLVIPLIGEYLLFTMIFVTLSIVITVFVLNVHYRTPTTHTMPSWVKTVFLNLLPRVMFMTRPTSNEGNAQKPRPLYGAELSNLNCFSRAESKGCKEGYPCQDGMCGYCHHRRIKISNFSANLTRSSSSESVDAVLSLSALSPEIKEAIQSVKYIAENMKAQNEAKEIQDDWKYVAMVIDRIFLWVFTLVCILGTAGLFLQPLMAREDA

On to `CCCC(=O)N[C@@H](Cc1ccc(O)cc1)C(=O)NCCCNC[C@H]1C[C@H]1CNCCCN`, for which the Ratio IC50 in the experiment listed under Homo sapiens is 32.9; in experiment [1] it was 5.3; in experiment [2], 1.7. Further, the IC50 (as a rule, the concentration that inhibits the measured activity by half) stood at 1.44 nM in experiment [3] and 47.4 nM in experiment [4].

Regarding `CCCC(=O)N[C@@H](CC1CCCCC1)C(=O)NCCCNCCCCNCCCN`, the Ratio IC50 was found to be 1 in the experiment filed under Homo sapiens, 2.9 in experiment [1] and 31.1 in experiment [2]. The IC50 in experiment [3] was 2.62 nM; in experiment [4] it was 2.58 nM.

In the case of `CCCC(=O)N[C@@H](Cc1ccccc1)C(=O)NCCCNCCCCNCCCN`, the Ratio IC50 was found to be 29.9 in the experiment listed under Homo sapiens, 8.2 in experiment [1] and 2.9 in experiment [2]. The IC50 in experiment [3] was 0.93 nM; in experiment [4], 27.8 nM.

Turning to `NCCCNCCCCNCCCNC(=O)[C@H](CC1CCCCC1)NC(=O)CC1CC2CCC1C2` (stereo partly drawn), the Ratio IC50 in the experiment listed under Homo sapiens is 26.9; in experiment [1], 8.1; in experiment [2], 3.1. In addition, the IC50 in experiment [3] stood at 0.95 nM; in experiment [4], 25.6 nM.

For `NCCCNCCCCNCCCNC(=O)[C@H](CC1CCCCC1)NC(=O)C1CCCCC1`, the figures for the Ratio IC50 (in the experiment filed under Homo sapiens; in experiment [1]; in experiment [2]) were 14.3, 3.5 and 2.6, respectively. For the same compound, the IC50 came out at 2.19 nM in experiment [3] and 31.4 nM in experiment [4].

For the compound `NCCCNCCCCNCCCNC(=O)[C@H](CC1CCCCC1)NC(=O)C1CCCCCC1`, the Ratio IC50 is 51.3 in the experiment listed under Homo sapiens, 13.9 in experiment [1] and 2.8 in experiment [2]. The figures for the IC50 in experiment [3] and in experiment [4] were 0.55 nM and 28.2 nM, respectively.

`NCCCNCCCCNCCCNC(=O)[C@H](CC1CCCCC1)NC(=O)C1CC1`: the Ratio IC50 amounted to 42.6 in the experiment filed under Homo sapiens, 2.9 in experiment [1] and 0.7 in experiment [2]. The half-inhibitory concentration (IC50) was 2.63 nM in experiment [3] and 112 nM in experiment [4].

`NCCCNCCCCNCCCNC(=O)[C@H](CC1CCCCC1)NC(=O)c1ccccc1`: the figures for the Ratio IC50 (in the experiment filed under Homo sapiens; in experiment [1]; in experiment [2]) were 57.8, 20.7 and 3.7, respectively. Further, the IC50 in experiment [3] came to 0.37 nM; in experiment [4] it was 21.4 nM.

For `CCCC(=O)N[C@@H](Cc1ccc(O)cc1)C(=O)NCCCNC[C@@H]1C[C@H]1CNCCCN`, the results for the Ratio IC50 (in the experiment filed under Homo sapiens; in experiment [1]; in experiment [2]) were 48.2, 8.3 and 1.8, respectively. In addition, the IC50 turned out to be 0.92 nM in experiment [3] and 44.3 nM in experiment [4].

Turning to `NCCCNCCCCNCCCNC(=O)[C@H](CC1CCCCC1)NC(=O)C1CCC1`, the figures for the Ratio IC50 (in the experiment filed under Homo sapiens; in experiment [1]; in experiment [2]) were 19.4, 7.1 and 3.9, respectively. Besides, the figures for the IC50 in experiment [3] and in experiment [4] were 1.07 nM and 20.8 nM, respectively.

For the compound `NCCCNCCCCNCCCNC(=O)[C@H](CC1CCCCC1)NC(=O)Cc1cccc2ccccc12`, the Ratio IC50 in the experiment filed under Homo sapiens amounted to 91.3; in experiment [1] it was 47.8; in experiment [2], 5.5. Also, the IC50 in experiment [3] amounted to 0.16 nM; in experiment [4], 14.6 nM.

Regarding `NCCCNCCCCNCCCNC(=O)[C@H](CC1CCCCC1)NC(=O)/C=C/c1ccccc1`, the Ratio IC50 was determined as 34.6 in the experiment listed under Homo sapiens, 21.9 in experiment [1] and 6.6 in experiment [2]. Besides, the IC50 in experiment [3] was 0.35 nM; in experiment [4], 12.1 nM.

Take `CCCC(=O)N[C@@H](CCc1ccccc1)C(=O)NCCCNCCCCNCCCN`: the Ratio IC50 stood at 12 in the experiment listed under Homo sapiens, 4.4 in experiment [1] and 3.9 in experiment [2]. In addition, the IC50 in experiment [3] is 1.74 nM; in experiment [4], 20.8 nM.

Turning to `NCCCNCCCCNCCCNC(=O)[C@H](Cc1ccc(O)cc1)NC(=O)C1CCCC1`, the Ratio IC50 was 39.5 in the experiment listed under Homo sapiens, 13.4 in experiment [1] and 3.6 in experiment [2]. Besides, the IC50 in experiment [3] is 0.57 nM; in experiment [4] it was 22.5 nM.

As for `NCCCNCCCCNCCCNC(=O)[C@H](Cc1ccc(O)cc1)NC(=O)C1CCCCC1`, the Ratio IC50 in the experiment filed under Homo sapiens was determined as 79.6; in experiment [1], 16.6; in experiment [2] it was 2.2. Besides, the IC50 in experiment [3] amounted to 0.46 nM; in experiment [4] it was 36.6 nM.

Consider `NCCCNCCCCNCCCNC(=O)[C@H](CC1CCCCC1)NC(=O)C1CCCC1`, for which the Ratio IC50 came out at 8.4 in the experiment listed under Homo sapiens, 11.8 in experiment [1] and 14.8 in experiment [2]. The figures for the IC50 in experiment [3] and in experiment [4] were 0.65 nM and 5.43 nM, respectively.

With `NCCCNCCCCNCCCNC(=O)[C@H](CC1CCCCC1)NC(=O)c1ccc(-c2ccccc2)cc1`, the results for the Ratio IC50 (in the experiment filed under Homo sapiens; in experiment [1]; in experiment [2]) were 9.1, 2.7 and 3.1, respectively. The values for the IC50 in experiment [3] and in experiment [4] were 2.83 nM and 25.8 nM, respectively.

For `CCCC(=O)N[C@@H](Cc1ccc(O)cc1)C(=O)NCCCNCCCCNCCCN` [PHILANTHOTOXIN 343], in the experiment filed under Homo sapiens, the Ratio IC50 came out at 10.5. Also, the results for the IC50 in experiment [3] and in experiment [4] were 7.65 nM and 80.2 nM, respectively.
